“And” between values parts separate entries of the source, which are not always exact repeats. Equal entries are not always repeated.
Tests used:
[1] = (§1) Functional metabolic assay to measure dose dependent changes in cell viability from drug treatment in HeLa-ACE2 cells. Hela-ACE2 cells are seeded prior to drug treatment, then incubated in MTT (3-[4,5-dimethylthiazol-2-yl]-2,5- diphenyltetrazolium bromide) labelling reagent and SDS. Absorbance is measured at 560 and 750 nm and analyzed by Gen5 software. The assay has been performed by Icahn School of Medicine at Mount Sinai.; type: toxicity, cell-based; settings: human
[2] = as §1, with “iPSC-Pneumocyte” for “HeLa-ACE2”, “The” for “Hela-ACE2”, “seeded” for “seeded prior to drug treatment,”, “labeling” for “labelling”; type: toxicity, cell-based; settings: human; for CC50: iPSC-Pneumocyte cells; for CC10: pneumocyte
[3] = Functional metabolic assay to measure dose dependent changes in cell viability from drug treatment in Vero E6/TMPRSS2 cells (cotreated with P-gp inhibitor, Elacridar). Cells are treated with antiviral candidates that have been serially diluted. Cytotoxicity is reported via measuring absorbance and analysis of MTT/MTS assays in uninfected cells. The assay has been performed by Icahn School of Medicine at Mount Sinai.; type: toxicity, cell-based, VeroE6/TMPRSS2; settings: chlorocebus sabaeus
[4] = tested on: Middle East respiratory syndrome-related coronavirus; experiment: microbe, parasite or virus in culture; type: functional, Chlorocebus sabaeus; settings: Vero 76

SMILES | CC10 ([1]; hela-ace2) | CC50 ([1]; hela-ace2) [µM] | CC50 [2] [µM] | CC10 [2] [µM] | CC50 ([3]; Vero E6/TMPRSS2 cells, with Elacridar (P-gp inhibitor), concentration not stated) [µM] | CC10 ([3]; veroe6/tmprss2) [µM] | CC50 ([1]; HeLa-ACE2 cells) [µM] | CC50 [4] [µM]
CC(C)[C@@H](Nc1ncnc2[nH]c(-c3cnn(C)c3C#N)cc12)c1ccc2c(n1)OCCO2 | > 50 µM and > 20 µM | > 50 | 6.02 | 5.176 | > 5 | > 5 |  | 
CNC(=O)c1c[nH]c2ncnc(N[C@H](c3ccc4c(c3)S(=O)(=O)CCC4)C(C)C)c12 | > 20 µM |  | > 50 | > 50 |  |  | > 20 | > 32

Reference: ChEMBL document CHEMBL5441451, “ASAP - In vitro cytotoxicity” (2024)
